Where two headings read alike, the source gives them in different places.
Experiments:
Assay type in all cases: biochemical
[1] = target: T1, homoserine transsuccinylase (HTS) of W3110 strain (wild-type) (Escherichia coli, UniProt P07623); assay: HTS activity in crude enzyme extract in the presence of inhibitors, W3110 (wild strain); details: no addition 22.3
T1 construct: The HTS activity in the crude enzyme extract was measured; endogenous in cells; host or cells: E. coli W3110 (wild strain), desalted crude enzyme extract
T1 sequence (P07623 whole entry): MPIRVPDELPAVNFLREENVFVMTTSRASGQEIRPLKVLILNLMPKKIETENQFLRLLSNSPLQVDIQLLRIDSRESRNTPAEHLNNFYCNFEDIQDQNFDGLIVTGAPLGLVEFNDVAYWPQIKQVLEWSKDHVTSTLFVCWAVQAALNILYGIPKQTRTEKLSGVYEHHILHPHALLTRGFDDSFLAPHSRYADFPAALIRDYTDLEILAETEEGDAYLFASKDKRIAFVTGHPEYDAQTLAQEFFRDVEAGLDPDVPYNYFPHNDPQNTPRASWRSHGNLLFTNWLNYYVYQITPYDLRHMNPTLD
Method: (§1) In order to confirm the effect of the metJ deletion by the recombination, a crude enzyme extract was prepared from the cells, and the activities of HTS and cystathionine synthase were measured. The W3110 strain and the WΔJ strain were each inoculated to 2 ml of LB medium, and cultured at 37° C. overnight. 1 ml of the medium was centrifuged at 5,000 rpm for 10 minutes, and the cells were washed twice with 0.9% saline. The obtained cell were suspended in 1 ml of 0.9% saline, 0.5 ml of which was inoculated to 50 ml of Davis-Mingioli minimal medium (Davis B. D., and Mingioli, E. S., J. Bacteriol., 60, 17-28 (1950)) containing 5 mM L-methionine. The cells were cultured at 37° C. for 24 hours, then the medium was centrifuged at 8,000 rpm for 10 minutes, and the cells were washed twice with 0.9% saline. The cells were suspended in 3 ml of 50 mM potassium phosphate buffer (pH 7.5) containing 1 mM dithiothreitol. This suspension was subjected to a cell disruption treatment at 4° C. with a power of 150 W for 5 minutes by using an ultrasonicator (Kubota Co.). The sonicated suspension was centrifuged at 15,000 rpm for 30 minutes, and the supernatant was desalted in a Sephadex G-50 column (Pharmacia) to obtain a crude enzyme extract. The HTS activity and the cystathionine synthase activity in the crude enzyme extract were measured.
(§2) As for the HTS activity, 5 μl of the crude enzyme extract was added to a reaction mixture comprising 0.1 M potassium phosphate (pH 7.5), 1 mM succinyl-coenzyme A (Sigma), 0.2 nM DL-[^14C]homoserine (Muromachi Chemical Industry), and 0.2 mM L-homoserine to obtain a volume of 50 μl, and allowed to react at 30° C. for 10 minutes. 1 μl of the reaction mixture was spotted on a cellulose plate (Merck), and developed with a mixed solvent containing acetone, butanol, water, and diethylamine at a ratio of 10:10:5:2. After the plate was air-dried, autoradiography was performed by using an image analyzer (Fuji Photo Film).
(§3) The cells were washed twice with 1 ml of 0.9% saline, and suspended in 1 ml of 0.9% saline, 0.5 ml of which was inoculated to 50 ml of minimal medium and cultured at 37° C. for one day. The medium was centrifuged at 8,000 rpm for 10 minutes, and the cells were washed twice with 1 ml of 0.9% saline. The obtained cells were suspended in 3 ml of 50 mM potassium phosphate buffer (pH 7.5) containing 1 mM dithiothreitol, and a crude enzyme extract was obtained in the same manner as in Example 1. The HTS activity in the crude enzyme extract was measured with the reaction composition mentioned in Example 1 in the presence of an inhibitor.

[2] = target: T2, HTS derived from MM resistant strain WMM4 (296th isoleucine changed to serine) (Escherichia coli, UniProt P07623, I296S); details: for HTS activity in the presence of inhibitor: WMM4, no addition 4.5; for Inhibition of HTS activity (in words): WMM4 strain, compared with wild strain
T2 construct: The HTS activity in the crude enzyme extract was measured; endogenous in cells; host or cells: E. coli WMM4 (spontaneous MM-resistant mutant of W3110), crude enzyme extract
T2 sequence (P07623 whole entry I296S): as the sequence (P07623 whole entry) above, with I296S counted along it
Method: as §1, §2
(§4) Chromosomal DNA was prepared from these resistant strains. PCR was performed by using each chromosomal DNA as a template and primers having the sequences represented as SEQ ID NOS: 21 and 22 to amplify the metA gene. The nucleotide sequence of each amplification fragment was determined by using primers for amplification of which nucleotide sequences are represented as SEQ ID NOS: 21 and 22, and primers having the sequences represented as SEQ ID NOS: 23 and 24.
as §3

[3] = target: T3, HTS derived from MM resistant strain WMM5 (proline 298 changed to leucine) (Escherichia coli, UniProt P07623, P298L); details: for HTS activity in the presence of inhibitor: WMM5, no addition 4.5; for Inhibition of HTS activity (in words): WMM5 strain, compared with wild strain
T3 construct: The HTS activity in the crude enzyme extract was measured; endogenous in cells; host or cells: E. coli WMM5 (spontaneous MM-resistant mutant of W3110), crude enzyme extract
T3 sequence (P07623 whole entry P298L): as the sequence (P07623 whole entry) above, with P298L counted along it
Method: as §1, §2, §4, §3

[4] = target: T4, HTS derived from MM resistant strain WMM7 (IS2 insertion, proline 298 and subsequent residues changed) (Escherichia coli, UniProt P07623); details: no addition 0.0 (activity undetectable)
T4 construct: The HTS activity in the crude enzyme extract was measured; endogenous in cells; host or cells: E. coli WMM7 (MM-resistant mutant of W3110 with IS2 in metA), crude enzyme extract
T4 sequence (P07623 other isoform, or with tags, fused parts or gaps, stated change not applied): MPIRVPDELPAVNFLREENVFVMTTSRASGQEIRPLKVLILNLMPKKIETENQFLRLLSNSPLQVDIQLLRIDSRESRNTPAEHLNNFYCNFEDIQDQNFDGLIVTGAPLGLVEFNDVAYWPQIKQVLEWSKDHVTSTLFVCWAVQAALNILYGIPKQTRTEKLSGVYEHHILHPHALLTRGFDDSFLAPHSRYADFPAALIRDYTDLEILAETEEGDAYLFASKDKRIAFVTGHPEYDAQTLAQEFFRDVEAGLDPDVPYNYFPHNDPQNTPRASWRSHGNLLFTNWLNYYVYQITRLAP
Method: as §1, §2, §4, §3

[5] = target: T5, HTS derived from MM resistant strain WMM9 (arginine 27 changed to cysteine) (Escherichia coli, UniProt P07623, R27C); details: for HTS activity in the presence of inhibitor: WMM9, no addition 5.0; for Inhibition of HTS activity (in words): WMM9 strain, compared with wild strain
T5 construct: The HTS activity in the crude enzyme extract was measured; endogenous in cells; host or cells: E. coli WMM9 (spontaneous MM-resistant mutant of W3110), crude enzyme extract
T5 sequence (P07623 whole entry R27C): as the sequence (P07623 whole entry) above, with R27C counted along it
Method: as §1, §2, §4, §3

## CSCCC(C)(N)C(=O)O (racemic) [MM, α-methyl-DL-methionine]
[1]; 0.1 mM inhibitor
  HTS activity in the presence of inhibitor: 18.6 mmol/min/mg protein
[1]; 1 mM inhibitor
  HTS activity in the presence of inhibitor: 7.0 mmol/min/mg protein
[2]; 0.1 mM inhibitor
  HTS activity in the presence of inhibitor: 4.1 mmol/min/mg protein
[2]; 1 mM inhibitor
  HTS activity in the presence of inhibitor: 4.6 mmol/min/mg protein
[2]
  Inhibition of HTS activity (in words): canceled
[3]; 0.1 mM inhibitor
  HTS activity in the presence of inhibitor: 4.6 mmol/min/mg protein
[3]; 1 mM inhibitor
  HTS activity in the presence of inhibitor: 4.8 mmol/min/mg protein
[3]
  Inhibition of HTS activity (in words): canceled
[4]; 0.1 mM inhibitor
  HTS activity in the presence of inhibitor: 0.0 mmol/min/mg protein
[4]; 1 mM inhibitor
  HTS activity in the presence of inhibitor: 0.0 mmol/min/mg protein
[5]; 0.1 mM inhibitor
  HTS activity in the presence of inhibitor: 4.9 mmol/min/mg protein
[5]; 1 mM inhibitor
  HTS activity in the presence of inhibitor: 2.7 mmol/min/mg protein
[5]
  Inhibition of HTS activity (in words): canceled

## CSCC[C@H](N)C(=O)O [Met, L-methionine]
[1]; 0.1 mM inhibitor
  HTS activity in the presence of inhibitor: 14.3 mmol/min/mg protein
[1]; 1 mM inhibitor
  HTS activity in the presence of inhibitor: 0.8 mmol/min/mg protein
[2]; 0.1 mM inhibitor
  HTS activity in the presence of inhibitor: 4.5 mmol/min/mg protein
[2]; 1 mM inhibitor
  HTS activity in the presence of inhibitor: 4.0 mmol/min/mg protein
[2]
  Inhibition of HTS activity (in words): reduced considerably
[3]; 0.1 mM inhibitor
  HTS activity in the presence of inhibitor: 4.2 mmol/min/mg protein
[3]; 1 mM inhibitor
  HTS activity in the presence of inhibitor: 4.0 mmol/min/mg protein
[3]
  Inhibition of HTS activity (in words): reduced considerably
[4]; 0.1 mM inhibitor
  HTS activity in the presence of inhibitor: 0.0 mmol/min/mg protein
[4]; 1 mM inhibitor
  HTS activity in the presence of inhibitor: 0.0 mmol/min/mg protein
[5]; 0.1 mM inhibitor
  HTS activity in the presence of inhibitor: 2.5 mmol/min/mg protein
[5]; 1 mM inhibitor
  HTS activity in the presence of inhibitor: 2.2 mmol/min/mg protein
[5]
  Inhibition of HTS activity (in words): reduced considerably

## C[S+](CC[C@H](N)C(=O)[O-])C[C@H]1O[C@@H](n2cnc3c(N)ncnc32)[C@H](O)[C@@H]1O (stereo partly drawn) [SAM, S-adenosylmethionine]
[1]; 0.1 mM inhibitor
  HTS activity in the presence of inhibitor: 17.0 mmol/min/mg protein
[1]; 1 mM inhibitor
  HTS activity in the presence of inhibitor: 3.0 mmol/min/mg protein
[2]; 0.1 mM inhibitor
  HTS activity in the presence of inhibitor: 4.6 mmol/min/mg protein
[2]; 1 mM inhibitor
  HTS activity in the presence of inhibitor: 2.6 mmol/min/mg protein
[2]
  Inhibition of HTS activity (in words): tendency of cancellation
[3]; 0.1 mM inhibitor
  HTS activity in the presence of inhibitor: 3.6 mmol/min/mg protein
[3]; 1 mM inhibitor
  HTS activity in the presence of inhibitor: 3.3 mmol/min/mg protein
[3]
  Inhibition of HTS activity (in words): tendency of cancellation
[4]; 0.1 mM inhibitor
  HTS activity in the presence of inhibitor: 0.0 mmol/min/mg protein
[4]; 1 mM inhibitor
  HTS activity in the presence of inhibitor: 0.0 mmol/min/mg protein
[5]; 0.1 mM inhibitor
  HTS activity in the presence of inhibitor: 1.1 mmol/min/mg protein
[5]; 1 mM inhibitor
  HTS activity in the presence of inhibitor: 0.5 mmol/min/mg protein
[5]
  Inhibition of HTS activity (in words): hardly canceled

Source: patent US7611873B1, “Method for producing L-methionine by fermentation” (priority 1998, dated 2009)
